Results taken from patent US12508243B2, “Compositions and methods for treating cancer and improving epithelial homeostasis” (The Regents of the University of California, priority 2019, dated 2025).
“Also recorded” adds a separate entry of the source.

Assays:
[1] = test system: TCF/LEF luciferase reporter; experiment: TCF/LEF luciferase reporter assay in transduced BEAS2B cells (CHIR-induced); format: cell-based, human; settings: 10 nM, WIC1, MSAB, LF3, ICG001 compared
Method: BEAS2B cells (ATCC CRL-9609) were seeded in a 6-well plate and infected with Cignal lentiviral particles containing a TCF/LEF luciferase reporter (Qiagen CLS-018L). Cells were spin infected at 37° C. for one hour using a multiplicity of infection of 20. Cells were selected with 0.6 μg/mL puromycin to isolate stably expressing clones.
(§1) For luciferase reporter assays conducted outside of the high-throughput drug screen, BEAS2B cells were seeded in a 96-well plate at 20,000 cells per well. The following day, cells were with treated DMSO, 5 μM CHIR99021 (CHIR; Tocris 4423), or 5 μM CHIR plus WIC2 (Key Organics GP-0355), Coumarin (Sigma C4261), or WIC1 for 24 hours. Lysis reactions were conducted using BrightGlo (Promega E1910) and incubated for two minutes at room temperature prior to transferring luminescence reactions to white-bottom, white-walled 96-well plates (Costar). Toxicity assays were conducted by adding Cell Titer Glo reagent (Promega) following manufacturer's protocol. Luminescence readings were conducted using the Clariostar plate reader.
In light of the finding that Wnt/β-catenin signaling drives ABSC hyperproliferation, a small molecule inhibitors of the pathway that could restore airway homeostasis. A high-throughput drug screen was established to identify compounds capable of reducing TCF/LEF activity measured by a luciferase reporter induced by CHIR treatment in a 384-well format (FIG. 3A). Briefly, white-bottom 384-well plates (Greiner One) were precoated overnight with 0.01 mg/mL fibronectin from human plasma (Sigma F0895), 0.03 mg/mL rat tail collagen type I (Corning 354249), and 0.01 mg/mL BSA (ThermoFisher BP-9706) diluted in 50 uL of Airway Epithelial Cell Growth Medium (PromoCell C21060). Precoat was then aspirated and washed using 100 μL the BioTek EL406. A custom V&P pin tool mounted to a Beckman FX liquid handler was then used to pin […] of 10 mM stock compound. 2,000 BEAS2B cells per well were then seeded using the Multidrop. Cells were therefore treated with 1% DMSO, 5 μM CHIR, or 5 μM CHIR+10 μM pinned compound and incubated for 24 hours at 37° C. and 5% CO2. […] 25 μL BrightGlo (Promega) was subsequently added to each well using the BioTek EL405 and incubated for 2 minutes prior reading luminescence values with the Envision plate reader (FIG. 3B). […] Z′ factor values were used to assess assay quality and was calculated by: Z′=1-3(SD Total+SDBackground)/(MeanTotal−MeanBackground) where SDTotal and MeanTotal are the standard deviation and mean of signal for CHIR-treated wells, and SDBackground and MeanBackground are the standard deviation and mean of signal for DMSO-treated wells. The Z′ factor value was calculated to be 0.82.

[2] = test system: BEAS2B cells; experiment: Cell Titer Glo toxicity assay in BEAS2B cells; format: cell-based, human; settings: various concentrations
Method: as §1

[3] = test system: mouse ABSCs (mABSCs); experiment: EdU proliferation assay in mouse ABSCs, submerged culture; format: cell-based; settings: submerged culture 4 days; for mABSC proliferation (EdU incorporation): 1 μM CHIR + 1 μM inhibitor
Method: Mouse and human ABSCs were isolated following a previously published method. Briefly, mouse tracheas were dissected, cleaned, and incubated in 16 U/mL dispase for 30 minutes (1 hour for human) at room temperature. Tracheas were then incubated in 0.5 mg/mL DNase for another 30 minutes (1 hour for human) at room temperature. Epithelium was stripped and incubated in 0.1% Trypsin-EDTA for 30 minutes (1 hour for human) shaking at 37° C. to generate a single cell suspension. Isolated cells were passed through a 40 μm strainer and stained with fluorophore-conjugated antibodies against ITGA6 and TROP2. ITGA6+ TROP2+ cells were obtained via FACS that was completed using the BD FACSAria cell sorter.
In vitro proliferation was studied using the Click-iT EdU incorporation assay kit (Invitrogen C10337) following the company's protocol. Briefly, mouse and human AB SC cultures were treated with 10 μM EdU 6-8 hours prior to commencing IFs. Cells were fixed with […] for 15 minutes followed by permeabilization in 0.5% Triton-X for 20 minutes. EdU cocktail was incubated for 30 minutes in darkness followed by immunocytochemistry.
(§2) To determine whether the pathobiology observed in human patients can be modeled in vitro, mouse ABSCs (mABSCs) were treated with GSK3β inhibitor CHIR99021 (CHIR) under submerged culture conditions for 4 days to activate canonical Wnt signaling (FIG. 2A).

[4] = test system: mouse ABSCs (mABSCs); experiment: Air-liquid interface (ALI) differentiation assay with mouse ABSCs; format: cell-based
Method: (§3) 24-well 6.5 mm transwells with 0.4 μm pore polyester membrane inserts were coated with 0.2 mg/mL collagen type I dissolved in 60% ethanol and allowed to air dry. ABSCs were seeded at 100,000 cells per well and allowed to grow in the submerged phase of culture for 4-5 days with 500 μl media in the basal chamber and 200 μl media in the apical chamber. ALI cultures were then established and culture with only 500 μl media in the basal chamber, and cultures harvested at varying timepoints for immunofluorescence studies. Media was changed every other day and cultures were maintained at 37° C. and 5% C02. ABSCs were treated with the indicated concentrations of GSK3XV (Sigma 361558), CHIR or WIC1.
Mouse ABSCs were grown in MTEC Plus media and MTEC serum-free media during the submerged and ALI phases of culture, respectively. MTEC base media is DMEM/Ham's F12 50/50 (Corning 15090CV). Table S1 and Table S2 indicate the media components and concentrations for MTEC Plus and MTEC serum-free media, respectively.
Mouse and human ABSCs were fixed in […] for 15 minutes followed by permeabilization with 0.50% Triton-X for 10 minutes. Cells were blocked using serum-free protein block (Dako X090930) for one hour at room temperature and overnight primary antibody incubation. Secondary antibodies were incubated for 1 hour in darkness, washed, and mounted using Vectashield hardest mounting medium with DAPI (Vector Labs H-1500). IF images were obtained using an LSM780 or LSM880 Zeiss confocal microscope and composite images generated using Fiji. […]

[5] = test system: human ABSCs; experiment: Air-liquid interface (ALI) differentiation assay with human ABSCs; format: cell-based; settings: human ABSCs, treated for 21 days
Method: as §3
(§4) Mouse and human ABSCs were fixed in […] for 15 minutes followed by permeabilization with 0.50% Triton-X for 10 minutes. Cells were blocked using serum-free protein block (Dako X090930) for one hour at room temperature and overnight primary antibody incubation. Secondary antibodies were incubated for 1 hour in darkness, washed, and mounted using Vectashield hardest mounting medium with DAPI (Vector Labs H-1500). IF images were obtained using an LSM780 or LSM880 Zeiss confocal microscope and composite images generated using Fiji.
To assess whether WIC1 could reverse Wnt/β-catenin-induced ABSC hyperproliferation, human ABSCs were treated with either DMSO, CHIR, or CHIR+WIC1. […] It was then sought to determine if WIC1 could promote ABSC differentiation to ciliated cells under ALI conditions.

[6] = test system: p-β-catenin^Y489; experiment: Immunofluorescence staining of phosphorylated β-catenin localization in ABSCs; format: cell-based, mouse
Method: as §4, §2

[7] = test system: Trp63; experiment: Trp63 expression with CHIR and WIC1 treatment (FIG. 4F); format: cell-based; settings: CHIR treatment
Method: (§5) RNA was isolated with the RNeasy Mini Kit (Qiagen 74104) following manufacturer's protocol and quantified using a NanoDrop Spectrophotometer (ThermoFisher). cDNA synthesis was performed using the TaqMan Reverse Transcription Reagents (ThermoFisher) as indicated by the company. qPCR was then performed using the TaqMan PCR Master Mix (Applied Biosystems) on the StepOne-Plus Real Time PCR System.

[8] = test system: TP63; experiment: qRT-PCR of TP63 expression in BEAS2B cells; format: cell-based, human; settings: addition of CHIR
Method: as §5

[9] = test system: TCF/LEF luciferase reporter; experiment: TCF/LEF (TOPFLASH) luciferase reporter in mABSCs; format: cell-based, mouse; settings: vs DMSO-treated cultures
Method: mABSCs were seeded in a 6-well transwell plate and transiently transfected with […] of the TOPFLASH luciferase reporter and […] Renilla Luciferase reporter vector pRL-TK for internal control (Promega). Transfections were conducted using Lipofectamine 2000 Transfection Reagent (ThermoFisher 11668030) following the manufacturer's protocol.
as §2

[10] = mABSCs, ALI, 100 nM inhibitor vs DMSO
[11] = mABSCs, ALI, 1 μM inhibitor vs DMSO
[12] = mABSCs, ALI, GSK3β inhibitor vs DMSO

COC(=O)c1cccc(NS(=O)(=O)c2ccc(C)cc2)c1 [MSAB]
TCF/LEF activity, inhibitor comparison [1]: only inhibitor that decreased TCF/LEF activity at 10 nM
Toxicity by Cell Titer Glo [2]: dose dependent toxicity
mABSC proliferation (EdU incorporation) [3]: decreased mABSC proliferation to a similar degree
Proportion of ciliated cells [4, 10]: neither 100 nM nor 1 μM MSAB increased differentiation to the ciliated cell fate
Percentage of ciliated cells [4, 11]: neither 100 nM nor 1 μM MSAB increased differentiation to the ciliated cell fate

O=C1[C@H](Cc2ccc(O)cc2)N2C(=O)CCN(C(=O)NCc3ccccc3)[C@H]2CN1Cc1cccc2ccccc12 [ICG001]
Toxicity by Cell Titer Glo [2]: dose dependent toxicity
mABSC proliferation (EdU incorporation) [3]: decreased mABSC proliferation to a similar degree
Proportion of ciliated cells [4, 10]: induced a greater proportion of ciliated cells
Percentage of ciliated cells [4, 11]: no effect on the percentage of ciliated cells

Cc1c[nH]c(-c2cnc(NCCNc3ccc(C#N)cn3)nc2-c2ccc(Cl)cc2Cl)n1 [CHIR, CHIR99021]
mABSC proliferation (EdU) ([3]; compound alone vs DMSO): statistically significant increase in proliferation; also recorded: statistically significant increased proliferation
Percentage of ciliated cells [4, 12]: significant reduction in the percentage of ciliated cells
Pool of K5+ mABSCs [4, 12]: increased pool of K5+ mABSCs
ABSC morphology ([4]; mABSCs, ALI, vs DMSO): clumping morphology reminiscent of PMLs; also recorded: dose-dependent heaping morphology that resembles the PMLs
Differentiation to the ciliated cell fate [5]: abolished differentiation to the cilated cell fate
Pool of ABSCs [5]: increased pool for ABSCs
Nuclear p-β-catenin^Y489 ([6]; compound alone vs DMSO): increase in nuclear p-β-cateninY489; also recorded: increased nuclear p-β-catenin^Y489; also recorded: induced nuclear localization of p-β-catenin^Y489
Localization of other phosphorylated forms of β-catenin (Y654, S552, S33,S37,T41) ([6]; mouse ABSCs, submerged phase of culture): remained primarily cytoplasmic or membranous
Trp63 expression [7]: induction of Trp63 expression
TP63 expression [8]: increase in TP63 expression

B1: Wnt3A: recombinant Wnt3A protein used to raise Wnt signaling (protein, UniProt P56704 19-352, looked up)
Protein Wnt-3a: SYPIWWSLAVGPQYSSLGSQPILCASIPGLVPKQLRFCRNYVEIMPSVAEGIKIGIQECQHQFRGRRWNCTTVHDSLAIFGPVLDKATRESAFVHAIASAGVAFAVTRSCAEGTAAICGCSSRHQGSPGKGWKWGGCSEDIEFGGMVSREFADARENRPDARSAMNRHNNEAGRQAIASHMHLKCKCHGLSGSCEVKTCWWSQPDFRAIGDFLKDKYDSASEMVVEKHRESRGWVETLRPRYTYFKVPTERDLVYYEASPNFCEPNPETGSFGTRDRTCNVSSHGIDGCDLLCCGRGHNARAERRREKCRCVFHWCCYVSCQECTRVYDVHTCK
Proportion of ciliated cells ([4]; ALI conditions, 100 ng/mL): increased the proportion of ciliated cells
K5+ mABSCs ([4]; ALI conditions, 500 ng/mL): K5+ mABSC expansion
Proportion of ciliated cells ([4]; ALI conditions, 500 ng/mL): produced fewer ciliated cells
TCF/LEF activity measured by a luciferase reporter [9]: increased TCF/LEF activity
